Assay results published in patent US7727736B2, “Soluble phospholipids for use in clotting factor assays” (The University of North Carolina at Chapel Hill, priority 2003, dated 2010).

Columns and labels:
[1] = target: T1, factor Va (Bos taurus, UniProt Q28107); test: Factor Va inactivation by APC; assay type: biochemical, bovine; set-up: APC cuts three bonds in the heavy chain of factor Va; bovine factor Va (100 nM)
T1 sequence (Q28107 29-741 limits assumed): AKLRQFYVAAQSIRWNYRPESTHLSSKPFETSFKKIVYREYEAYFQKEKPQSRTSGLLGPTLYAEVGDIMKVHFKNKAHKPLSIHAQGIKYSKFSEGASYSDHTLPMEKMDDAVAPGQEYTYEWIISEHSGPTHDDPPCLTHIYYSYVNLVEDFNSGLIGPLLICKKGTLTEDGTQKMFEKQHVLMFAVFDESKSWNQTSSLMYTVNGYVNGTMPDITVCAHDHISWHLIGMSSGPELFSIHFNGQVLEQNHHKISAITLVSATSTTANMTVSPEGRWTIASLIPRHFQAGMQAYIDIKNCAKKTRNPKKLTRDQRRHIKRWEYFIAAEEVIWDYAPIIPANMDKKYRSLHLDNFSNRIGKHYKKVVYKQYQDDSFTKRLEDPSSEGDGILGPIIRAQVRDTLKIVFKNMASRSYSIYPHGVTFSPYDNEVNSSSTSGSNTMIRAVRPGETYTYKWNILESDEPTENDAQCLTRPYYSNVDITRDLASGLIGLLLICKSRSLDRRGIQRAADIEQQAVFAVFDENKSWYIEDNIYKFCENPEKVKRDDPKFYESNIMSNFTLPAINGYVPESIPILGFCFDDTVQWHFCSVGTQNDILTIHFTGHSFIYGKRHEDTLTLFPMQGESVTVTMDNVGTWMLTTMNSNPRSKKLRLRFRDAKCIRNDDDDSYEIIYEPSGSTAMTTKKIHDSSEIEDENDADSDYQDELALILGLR
T1 sequence (Q28107 1565-2211 limits assumed): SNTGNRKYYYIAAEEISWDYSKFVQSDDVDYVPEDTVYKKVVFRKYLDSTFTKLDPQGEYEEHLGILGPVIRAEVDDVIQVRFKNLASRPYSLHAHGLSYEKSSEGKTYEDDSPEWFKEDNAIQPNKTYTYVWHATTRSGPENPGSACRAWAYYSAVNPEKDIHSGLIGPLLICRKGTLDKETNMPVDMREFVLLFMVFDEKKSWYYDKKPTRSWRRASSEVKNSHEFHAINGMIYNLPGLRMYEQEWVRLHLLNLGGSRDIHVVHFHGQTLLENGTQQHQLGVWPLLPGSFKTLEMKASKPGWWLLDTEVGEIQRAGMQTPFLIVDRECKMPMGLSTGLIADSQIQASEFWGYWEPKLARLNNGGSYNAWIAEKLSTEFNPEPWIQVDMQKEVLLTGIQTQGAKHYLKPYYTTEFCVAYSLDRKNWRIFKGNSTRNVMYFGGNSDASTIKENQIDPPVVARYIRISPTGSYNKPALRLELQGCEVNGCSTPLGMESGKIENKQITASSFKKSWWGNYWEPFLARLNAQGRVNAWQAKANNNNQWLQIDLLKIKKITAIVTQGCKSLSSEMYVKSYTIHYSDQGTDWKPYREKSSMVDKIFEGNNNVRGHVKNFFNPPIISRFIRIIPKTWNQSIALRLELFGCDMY
Description: Aliquots of this mixture (10 μL) were added at selected time intervals to a cuvette containing prothrombin (1.4 μM), DAPA (5 μM), PCPS vesicle (50 μM), and factor Xa (10 nM) in a total assay volume of 1 mL. The fluorescence intensity of the thrombin-DAPA was monitored with time. Under these conditions, the rate of thrombin formation is proportional to the rate of DAPA fluorescence increase and is linearly related to the amount of active factor Va. The two isoforms of factor Va, Va1 (Frame A) and Va2 (Frame B) were inactivated at different rates and to different extents by APC depending on the availability of C6PS.
Proteolysis at Arg^506 leads to partial inactivation, but proteolysis at Arg^306 is necessary for full inactivation (Kalafatis & Mann (1993) J. Biol. Chemistry 268 27246; Nicolaes et al., (1995) J. Biol. Chemistry (1995) 270 21158). […] The rate of proteolysis of the bond at Arg^306 increased from undetectable to a value of kcat/KM=3-3.5×10^6 M^−1sec^−1, identical to the rate reported with PS-containing membranes.

[2] = target: T2, factor VIIIa-IXa complex (Homo sapiens, UniProt P00451+P00740); test: Activation of factor X by factor IXa and factor VIIIa; assay type: biochemical; settings: in the presence of C6PS
T2 construct: 2.5 nM factor IXa and 10 nM factor VIIIa
Description: The rate of activation of factor X by 2.5 nM factor IXa and 10 nM factor VIIIa in the presence of 600 μM C6PS was monitored at different concentrations of factor X (FIG. 13). The KM for this reaction was 66 nM, which is similar to that obtained with 30% PS/PC membranes (45 nM) (Larson et al. (1996) J. Biol. Chem. 271 3869).

T2 sequence (P00740 47-191 limits assumed): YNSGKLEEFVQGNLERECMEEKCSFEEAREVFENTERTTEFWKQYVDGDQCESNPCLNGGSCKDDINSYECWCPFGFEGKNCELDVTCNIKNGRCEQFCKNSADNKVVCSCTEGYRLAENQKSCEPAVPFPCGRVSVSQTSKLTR
T2 sequence (P00740 227-461 limits assumed): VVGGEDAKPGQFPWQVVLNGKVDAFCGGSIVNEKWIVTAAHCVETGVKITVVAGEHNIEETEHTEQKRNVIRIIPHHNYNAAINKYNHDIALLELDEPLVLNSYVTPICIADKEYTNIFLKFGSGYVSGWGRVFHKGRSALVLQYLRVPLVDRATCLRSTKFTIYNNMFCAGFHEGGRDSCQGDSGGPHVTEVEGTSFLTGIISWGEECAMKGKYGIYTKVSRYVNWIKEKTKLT
T2 sequence (P00451 20-391 limits assumed): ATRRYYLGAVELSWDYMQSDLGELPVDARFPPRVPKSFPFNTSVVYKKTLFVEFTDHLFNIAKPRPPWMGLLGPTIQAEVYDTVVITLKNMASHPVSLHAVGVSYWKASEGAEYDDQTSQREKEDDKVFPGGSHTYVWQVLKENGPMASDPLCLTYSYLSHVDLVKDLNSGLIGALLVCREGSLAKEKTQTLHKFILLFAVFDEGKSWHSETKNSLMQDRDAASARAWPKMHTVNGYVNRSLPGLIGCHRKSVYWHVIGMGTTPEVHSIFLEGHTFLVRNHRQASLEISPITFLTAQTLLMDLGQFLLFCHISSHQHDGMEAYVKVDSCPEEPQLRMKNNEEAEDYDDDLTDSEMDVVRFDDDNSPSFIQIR
T2 sequence (P00451 392-759 limits assumed): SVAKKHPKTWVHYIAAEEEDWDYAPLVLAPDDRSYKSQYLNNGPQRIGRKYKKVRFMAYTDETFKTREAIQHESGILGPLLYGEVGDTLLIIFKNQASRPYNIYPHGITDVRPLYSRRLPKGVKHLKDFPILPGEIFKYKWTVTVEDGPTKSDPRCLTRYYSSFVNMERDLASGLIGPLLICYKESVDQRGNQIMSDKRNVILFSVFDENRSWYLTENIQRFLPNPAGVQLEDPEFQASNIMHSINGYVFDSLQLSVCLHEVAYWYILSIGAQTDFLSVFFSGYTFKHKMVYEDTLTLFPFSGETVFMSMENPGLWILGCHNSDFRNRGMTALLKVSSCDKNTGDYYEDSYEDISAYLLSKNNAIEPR
T2 sequence (P00451 1709-2351 limits assumed): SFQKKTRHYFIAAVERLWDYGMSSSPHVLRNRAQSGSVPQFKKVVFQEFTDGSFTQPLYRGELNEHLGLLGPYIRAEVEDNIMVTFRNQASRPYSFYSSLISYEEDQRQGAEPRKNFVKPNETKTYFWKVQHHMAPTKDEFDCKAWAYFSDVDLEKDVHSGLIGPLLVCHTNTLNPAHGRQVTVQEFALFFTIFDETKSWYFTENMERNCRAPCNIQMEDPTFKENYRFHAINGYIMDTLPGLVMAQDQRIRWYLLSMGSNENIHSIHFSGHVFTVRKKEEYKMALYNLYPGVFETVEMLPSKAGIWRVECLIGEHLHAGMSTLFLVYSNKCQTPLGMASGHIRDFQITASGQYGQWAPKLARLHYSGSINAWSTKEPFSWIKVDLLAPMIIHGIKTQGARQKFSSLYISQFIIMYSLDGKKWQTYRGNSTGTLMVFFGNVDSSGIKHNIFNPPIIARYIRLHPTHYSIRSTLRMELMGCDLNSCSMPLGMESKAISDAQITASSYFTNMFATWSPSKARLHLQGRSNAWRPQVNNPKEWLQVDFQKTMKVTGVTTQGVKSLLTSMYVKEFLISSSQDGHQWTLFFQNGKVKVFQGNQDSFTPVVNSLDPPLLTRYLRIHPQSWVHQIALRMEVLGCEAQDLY

## CCCCCC(=O)OC[C@H](COP(=O)(O)OC[C@H](N)C(=O)O)OC(=O)CCCCC [C6PS, 1,2-dicaproyl-sn-glycero-3-phospho-L-serine]
[1]; 4 μM C6PS
  effect on extent of factor Va inactivation by APC: only a small effect
  effect on rate of factor Va inactivation by APC: no effect
[1]; 200 μM C6PS
  factor Va inactivation by APC: complete inactivation
[2]
  fold reduction of KM for factor X activation with the addition of VIIIa: 5 fold
